Source: patent publication US20230295236A1, “COMPOUNDS FOR USE IN INFLAMMATORY CONDITIONS” (priority 2020, published 2023)
Like-named read-outs stand apart in the source and are kept apart here.

Legend:
[1] = Stability of plitidepsin drug product and reconstituted solution; assay type: physicochemical
Method: Plitidepsin will be labelled with the study protocol code, the batch number, the content, the expiry date, the storage conditions, the name of the investigator and the sponsor. The study drug will be labelled in accordance with Annex 13 of the European Good Manufacturing Practices. Plitidepsin should be stored between 2° C. and 8° C. and the vials should be kept in the outer carton to protect them from light. The drug in these conditions is stable for 60 months.
After reconstitution of the 2 mg plitidepsin vial with 4 ml of the solution for reconstitution of macrogolglycerol ricinoleate/ethanol/water for injection, the reconstituted solution should be diluted and used immediately after preparation. If not used immediately, storage times and conditions until use are the responsibility of the user. […] If storage is required before administration, solutions should be stored refrigerated and protected from light and should be used within 24 hours after reconstitution.

[2] = Pharmacokinetics in patients; assay type: in vivo; conditions: both sexes, plasma, Human (M/F), 0.135 mg/kg (Recommended Dose 5 mg/m2), 3-h intravenous infusion
SARS-CoV-2 [3] = test: SARS-CoV-2 replication in human stem cell-derived pneumocyte like cells; assay type: cell-based; conditions: 10 nm plitidepsin for 1 hour before infection; 48 hour incubation
Method: Several in vitro experiments aimed at determining the effect of plitidepsin on SARS-CoV-2 were carried out and are disclosed herein. […] In another study, human stem cell-derived pneumocyte like cells were prophylactically exposed to 10 nm plitidepsin for 1 hour and then infected with SARS-CoV-2 (4 × 10^4 plaque forming units). After a 48 hour incubation period, both antiviral and cytotoxic plitidepsin effects were determined.

SARS-CoV-2 [4] = test: SARS-CoV-2 cytopathic effect in Vero E6 cells (CellTiter-Glo); assay type: cell-based; conditions: Severe acute respiratory syndrome coronavirus 2, Vero C1008, 72 h, 3 days post infection, two experiments with two replicates each, read-out: IC50 viral-induced cytopathic effect (mean and standard deviation)
Method: Vero E6 cells (ATCC CRL-1586) were cultured in Dulbecco’s modified Eagle medium, (DMEM; Lonza) supplemented with 5% fetal calf serum (FCS; EuroClone), 100 U/mL penicillin, 100 µg/mL streptomycin, and 2 mM glutamine (all ThermoFisher Scientific).
Plitidepsin was used at a concentration ranging from 100 µM to 0.0512 nM at ⅕ serial dilutions, and also assayed from 10 µM to 0.5 nM at ⅓ dilutions.
Increasing concentrations of Plitidepsin was added to Vero E6 cells together with 10^1.8 TCID50/mL of SARS-CoV-2, a concentration that achieves a 50% of cytopathic effect. Non-exposed cells were used as negative controls of infection. In order to detect any drug-associated cytotoxic effect, Vero E6 cells were equally cultured in the presence of increasing drug concentrations, but in the absence of virus. Cytopathic or cytotoxic effects of the virus or drugs were measured at 3 days post infection, using the CellTiter-Glo luminescent cell viability assay (Promega). Luminescence was measured in a Fluoroskan Ascent FL luminometer (ThermoFisher Scientific).
Response curves were adjusted to a non-linear fit regression model, calculated with a four-parameter logistic curve with variable slope. […] Statistical differences from 100% were assessed with a one sample t test. […]

Vero-E6 cells = test: Cell biomass (DAPI) in Vero-E6 cells; assay type: cell-based, African green monkey; conditions: VeroE6 cells, 48 hours
Method: (§1) Relative infection efficiency was assessed by automated fluorescence microscopy in the green channel and overall cell biomass/well was estimated by nuclear staining with DAPI in the blue channel, as a preliminary assessment of the compound effective doses as well as overall compound cytotoxicity.
(§2) Cells were fixed by addition of a 5X formaldehyde solution to achieve a 4% final concentration for 30 mins at room temperature. Cells were washed with PBS and stained with DAPI (4′,6-diamidino-2-phenylindole) following manufacturer’s recommendations. Relative infection efficiency was estimated by image analysis in an automated microscopy device (Tecan Spark Cyto). Uninfected cells and vehicle-treated controls were included in each plate.

[5] = Cell biomass (DAPI) in Vero-E6 cells; assay type: cell-based, African green monkey; conditions: African green monkey, Vero-E6 cells, VeroE6 cells, read-out: CC50 based on cell biomass
Method: as §1, §2

NF-κB = NF-κB transactivation luciferase assay in THP-1 NF-κB-Luc cells; assay type: cell-based, human; conditions: 100 nM plitidepsin, 6 hours; with poly I:C, LPS-B5 or Resiquimod (TLR ligands)
Method: Luminescence was measured in a Perkin-Elmer EnVision reader.

SARS-CoV-2 [6] = test: APLICOV-PC clinical study in patients hospitalised for COVID-19: efficacy; assay type: in vivo, human
WNV-NY99 (lineage 1) [7] = assay type: cell-based, West Nile virus; conditions: for Intracellular WNV RNA load (RT-qPCR): Vero-E6 cells
[8] = tested on: WNV-GFP (lineage 2; molecular clone WN956)
WNV-NY99 (lineage 1) [9] = conditions: Huh-7 cells
alveolar macrophages = test: LPS animal inflammation model: macrophages in bronchoalveolar lavage by flow cytometry; assay type: in vivo, mouse; conditions: mice 1 mg/kg single i.v., LPS 20 µg/kg i.p.
From the text: Three hours later, bronchoalveolar lavages were collected.

SARS-CoV-2 [10] = test: SARS-CoV-2 dose-response curve analysis by immunofluorescence in Vero cells
[11] = target: eEF1A purified from rabbit muscle (Oryctolagus cuniculus, UniProt Q71V39); test: Binding of 14C-plitidepsin to purified eEF1A
Chain of eEF1A purified from rabbit muscle (Q71V39 whole entry): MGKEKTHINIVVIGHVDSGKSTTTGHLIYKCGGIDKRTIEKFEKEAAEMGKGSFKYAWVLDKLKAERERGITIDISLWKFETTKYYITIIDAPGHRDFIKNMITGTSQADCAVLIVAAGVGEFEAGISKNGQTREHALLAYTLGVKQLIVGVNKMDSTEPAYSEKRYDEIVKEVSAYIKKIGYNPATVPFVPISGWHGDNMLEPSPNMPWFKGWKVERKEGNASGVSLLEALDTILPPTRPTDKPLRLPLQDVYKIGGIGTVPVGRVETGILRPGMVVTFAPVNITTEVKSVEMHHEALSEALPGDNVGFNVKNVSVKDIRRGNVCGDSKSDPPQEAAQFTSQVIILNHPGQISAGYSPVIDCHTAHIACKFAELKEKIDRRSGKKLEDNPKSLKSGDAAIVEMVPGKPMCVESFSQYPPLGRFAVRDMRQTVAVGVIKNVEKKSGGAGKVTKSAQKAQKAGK

SMILES: CC[C@H](C)[C@H]1NC(=O)[C@@H](NC(=O)[C@@H](CC(C)C)N(C)C(=O)[C@@H]2CCCN2C(=O)C(C)=O)[C@@H](C)OC(=O)[C@H](Cc2ccc(OC)cc2)N(C)C(=O)[C@@H]2CCCN2C(=O)[C@H](CC(C)C)NC(=O)[C@@H](C)C(=O)[C@H](C(C)C)OC(=O)C[C@@H]1O [plitidepsin]
- Physical, chemical and microbiological stability of reconstituted concentrated solution ([1]; original vial under indoor light at room temperature): 6 hours
- Physical, chemical and microbiological stability of reconstituted concentrated solution ([1]; refrigerated conditions (5° C.±3° C.)): 24 hours
- Stability of the drug (vials) ([1]; stored between 2° C. and 8° C., protected from light): 60 months
- AUC(0-inf) [2]: 256 ng·h/mL
- Cmax [2]: 29.1 ng/mL
- clearance [2]: 11.7 to 15 mL/min/kg
- Vd ([2]; read-out: Vdss): 29 to 33 L/kg
- half-life ([2]; read-out: t½): 20 to 80 h
- SARS-CoV-2 replication (SARS-CoV-2 [3]): completely eliminated replication of SARS-CoV-2
- IC50 (SARS-CoV-2 [4]): 60 ± 20 nM
- Concentration up to which cell number remained unchanged (Vero-E6 cells): up to 36 nM
- CC50 at 48 h [5]: 2330 nM
- NF-κB transactivation (luciferase activity) (NF-κB): clearly inhibited the production of luciferase
- Mean time from baseline until undetectable viral load (SARS-CoV-2 [6]): 11 days
- Mortality from Day 1 to Day 7 (SARS-CoV-2 [6]): 0 n (%)
- Mortality from Day 1 to Day 15 (SARS-CoV-2 [6]): 0 n (%)
- Mortality from Day 1 to Day 31 (SARS-CoV-2 [6]): 2 (4.5) n (%)
- Patients requiring ICU admission from Day 1 to Day 7 (SARS-CoV-2 [6]): 5 (11.4) n (%)
- Patients requiring ICU admission from Day 1 to Day 15 (SARS-CoV-2 [6]): 6 (13.6) n (%)
- Patients requiring ICU admission from Day 1 to Day 31 (SARS-CoV-2 [6]): 6 (13.6) n (%)
- Patients requiring invasive mechanical ventilation and/or ICU admission from Day 1 to Day 7 (SARS-CoV-2 [6]): 5 (11.4) n (%)
- Patients requiring invasive mechanical ventilation and/or ICU admission from Day 1 to Day 15 (SARS-CoV-2 [6]): 6 (13.6) n (%)
- Patients requiring invasive mechanical ventilation and/or ICU admission from Day 1 to Day 31 (SARS-CoV-2 [6]): 6 (13.6) n (%)
- Patients requiring noninvasive mechanical ventilation from Day 1 to Day 7 (SARS-CoV-2 [6]): 4(9.1) n (%)
- Patients requiring noninvasive mechanical ventilation from Day 1 to Day 15 (SARS-CoV-2 [6]): 5 (11.4) n (%)
- Patients requiring noninvasive mechanical ventilation from Day 1 to Day 31 (SARS-CoV-2 [6]): 6 (13.6) n (%)
- Mean change in viral load from baseline to Day 4 (SARS-CoV-2 [6]; 96 h): -1.90 log10 copies/mL
- Mean change in viral load from baseline to Day 7 (SARS-CoV-2 [6]; 168 h): -3.07 log10 copies/mL
- Mean reduction in viral load (SARS-CoV-2 [6]; 168 h): -3.1 log10 copies/mL
- Patients requiring oxygen therapy at Day 7 (SARS-CoV-2 [6]; 168 h): 31 (70.5) n (%)
- Patients discharged from hospital by Day 8 (SARS-CoV-2 [6]; 192 h): 25 (56.8) n (%)
- Mean change in viral load from baseline to Day 15 (SARS-CoV-2 [6]; 360 h): -4.48 log10 copies/mL
- Mean reduction in viral load (SARS-CoV-2 [6]; 360 h): -4.5 log10 copies/mL
- Patients discharged from hospital by Day 15 (SARS-CoV-2 [6]; 360 h): 36 (81.8) n (%)
- Patients requiring oxygen therapy at Day 15 (SARS-CoV-2 [6]; 360 h): 9 (20.5) n (%)
- Reduction in viral load (SARS-CoV-2 [6]; 360 h): -3.0 log
- Mean change in viral load from baseline to Day 31 (SARS-CoV-2 [6]; 744 h): -5.27 log10 copies/mL
- Patients discharged from hospital by Day 31 (SARS-CoV-2 [6]; 744 h): 40 (90.9) n (%)
- Patients requiring oxygen therapy at Day 31 (SARS-CoV-2 [6]; 744 h): 3 (6.8) n (%)
- Reduction of extracellular infectivity titers (WNV-NY99 (lineage 1) [7]; 45 nM, VeroE6 cells, 48 hours): > 3 orders of magnitude
- Intracellular WNV RNA load (RT-qPCR) (WNV-NY99 (lineage 1) [7]; 5 and 1.5 nM): not distinguishable from those in the control
- Intracellular WNV RNA load (RT-qPCR) (WNV-NY99 (lineage 1) [7]; 15 and 45 nM): significantly decreased in a dose-dependent manner
- Concentration with antiviral activity in the absence of measurable interference with cell viability (p<0.05) ([8]; Vero-E6 cells): 7.2 nM
- Therapeutic index (CC50/EC50) ([8]; VeroE6 cells): 475
- Concentration reaching background fluorescence levels ([8]; VeroE6 cells, 48 hours): ≥ 36 nM
- Intracellular WNV RNA load (RT-qPCR) (WNV-NY99 (lineage 1) [9]; 15 nM): marked reduction in viral load
- Total cellular RNA recovery (WNV-NY99 (lineage 1) [9]; 45 nM): no RNA could be recovered
- Reduction of extracellular infectivity titers (WNV-NY99 (lineage 1) [9]; 45 nM, 48 hours): > 3 orders of magnitude
- Macrophages in bronchoalveolar lavage (alveolar macrophages): decrease the percentage of macrophages presents on bronchoalveolar lavage without cytotoxic effects
- SI (SARS-CoV-2 [10]): 49.95-129.92
- IC50 (SARS-CoV-2 [10]; read-out: IC50 inhibition of virus infection, Vero cells, MOI 0.0125, 24 hpi, three repeats): 3.3 to 3.9 nM
- Binding affinity to eEF1A [11]: high affinity
- Rate of dissociation from eEF1A [11]: low rate of dissociation
